Like-named read-outs stand apart in the source and are kept apart here.
How the values were obtained:
[1] = target: T1, BCRP (Homo sapiens, UniProt Q9UNQ0); experiment: B to A transport of [3-H]estrone-3-sulfate in LLC-PK1-BCRP cells; type: in vitro ADME; conditions: human, LLC-PK1-BCRP cell monolayers on filter membranes, probe [3H]estrone-3-sulfate (0.1 μM); LLC-PK1-BCRP cells; B to A transport of 0.1 μM [3-H]estrone-3-sulfate; read-out: IC50 for inhibition of BCRP transport
T1 sequence (Q9UNQ0 1-655): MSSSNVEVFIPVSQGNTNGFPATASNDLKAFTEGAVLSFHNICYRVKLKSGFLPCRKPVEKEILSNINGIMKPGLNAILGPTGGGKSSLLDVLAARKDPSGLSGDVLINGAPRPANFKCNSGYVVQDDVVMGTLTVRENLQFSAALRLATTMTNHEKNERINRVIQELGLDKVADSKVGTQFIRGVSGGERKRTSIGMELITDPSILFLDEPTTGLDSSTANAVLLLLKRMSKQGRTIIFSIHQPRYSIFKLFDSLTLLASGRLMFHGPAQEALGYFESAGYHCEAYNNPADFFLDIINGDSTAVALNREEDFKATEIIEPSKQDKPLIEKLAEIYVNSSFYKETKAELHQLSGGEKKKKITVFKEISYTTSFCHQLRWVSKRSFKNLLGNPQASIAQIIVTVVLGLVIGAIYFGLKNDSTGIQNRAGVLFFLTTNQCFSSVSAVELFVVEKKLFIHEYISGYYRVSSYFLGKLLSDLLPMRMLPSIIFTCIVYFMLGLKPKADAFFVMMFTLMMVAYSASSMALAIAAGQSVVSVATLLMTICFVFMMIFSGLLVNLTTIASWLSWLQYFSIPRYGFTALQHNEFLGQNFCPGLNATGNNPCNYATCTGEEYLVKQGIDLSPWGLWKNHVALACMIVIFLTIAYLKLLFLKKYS

[2] = target: T2, UGT1A9 (Homo sapiens, UniProt O60656); conditions: cited from earlier work
T2 sequence (O60656 26-530): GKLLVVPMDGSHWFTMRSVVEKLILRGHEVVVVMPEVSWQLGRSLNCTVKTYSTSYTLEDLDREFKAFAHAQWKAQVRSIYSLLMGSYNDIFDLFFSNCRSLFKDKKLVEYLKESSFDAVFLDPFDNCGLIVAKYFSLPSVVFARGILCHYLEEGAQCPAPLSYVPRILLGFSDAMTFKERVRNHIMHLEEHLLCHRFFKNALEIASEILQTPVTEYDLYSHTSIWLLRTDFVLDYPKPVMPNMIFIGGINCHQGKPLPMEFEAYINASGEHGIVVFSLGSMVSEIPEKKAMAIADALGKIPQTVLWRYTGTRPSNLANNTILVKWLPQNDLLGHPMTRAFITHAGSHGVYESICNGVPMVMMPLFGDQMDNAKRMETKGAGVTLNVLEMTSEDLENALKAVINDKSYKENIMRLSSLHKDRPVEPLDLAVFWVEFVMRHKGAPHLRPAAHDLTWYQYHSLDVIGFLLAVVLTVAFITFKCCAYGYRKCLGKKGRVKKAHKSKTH

[3] = target: T3, OCT2 (Homo sapiens, UniProt O15244); experiment: Uptake of [3-H]methyl-4-phenylpyridinium in HEK293-OCT2 cells; type: in vitro ADME; conditions: for Transport Rate (pmol/min) (mean ± SD): 0.1 μM probe substrate, n=3
T3 construct: host or cells: HEK293 (transient overexpression)
T3 sequence (O15244 1-555): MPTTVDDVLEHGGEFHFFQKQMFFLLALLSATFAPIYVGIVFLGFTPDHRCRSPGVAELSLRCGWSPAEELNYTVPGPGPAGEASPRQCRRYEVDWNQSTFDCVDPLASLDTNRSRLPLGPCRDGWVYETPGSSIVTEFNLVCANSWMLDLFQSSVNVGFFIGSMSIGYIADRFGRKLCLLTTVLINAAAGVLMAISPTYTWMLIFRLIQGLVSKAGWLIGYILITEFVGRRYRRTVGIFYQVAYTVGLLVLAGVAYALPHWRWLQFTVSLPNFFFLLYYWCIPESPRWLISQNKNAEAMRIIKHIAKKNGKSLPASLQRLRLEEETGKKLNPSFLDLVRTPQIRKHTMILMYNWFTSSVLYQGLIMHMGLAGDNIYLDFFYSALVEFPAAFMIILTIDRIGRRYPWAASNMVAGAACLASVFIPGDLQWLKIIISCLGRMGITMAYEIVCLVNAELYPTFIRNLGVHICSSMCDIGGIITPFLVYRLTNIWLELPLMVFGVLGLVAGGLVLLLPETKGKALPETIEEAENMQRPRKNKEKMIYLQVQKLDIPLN
Method: (§1) To examine the effects of APINACA and typical inhibitors on transporter activity, the uptake of a probe substrate into HEK293 cells overexpressing the respective solute carrier transporters was measured in the presence of APINACA (final concentrations of 0–250 μM) or typical inhibitors for 5 min. The concentrations and probe substrates were selected as follows: 0.1 μM [3-H]MPP^+ (for OCT1 and OCT2), 0.1 μM [3-H]PAH (for OAT1), 0.1 μM [3-H]ES (for OAT3 and OATP1B1), and 0.1 μM [3-H]EG (for OATP1B3).
(§2) 12.5 (Systat Software, Inc.; San Jose, CA, USA). […] 1.1 (Systat Software, Inc.).

[4] = target: T4, OCT1 (Homo sapiens, UniProt O15245); experiment: Uptake of [3-H]methyl-4-phenylpyridinium in HEK293-OCT1 cells; type: in vitro ADME; conditions: for Transport Rate (pmol/min) (mean ± SD): 0.1 μM probe substrate, n=3
T4 construct: host or cells: HEK293 (transient overexpression)
T4 sequence (O15245 1-554): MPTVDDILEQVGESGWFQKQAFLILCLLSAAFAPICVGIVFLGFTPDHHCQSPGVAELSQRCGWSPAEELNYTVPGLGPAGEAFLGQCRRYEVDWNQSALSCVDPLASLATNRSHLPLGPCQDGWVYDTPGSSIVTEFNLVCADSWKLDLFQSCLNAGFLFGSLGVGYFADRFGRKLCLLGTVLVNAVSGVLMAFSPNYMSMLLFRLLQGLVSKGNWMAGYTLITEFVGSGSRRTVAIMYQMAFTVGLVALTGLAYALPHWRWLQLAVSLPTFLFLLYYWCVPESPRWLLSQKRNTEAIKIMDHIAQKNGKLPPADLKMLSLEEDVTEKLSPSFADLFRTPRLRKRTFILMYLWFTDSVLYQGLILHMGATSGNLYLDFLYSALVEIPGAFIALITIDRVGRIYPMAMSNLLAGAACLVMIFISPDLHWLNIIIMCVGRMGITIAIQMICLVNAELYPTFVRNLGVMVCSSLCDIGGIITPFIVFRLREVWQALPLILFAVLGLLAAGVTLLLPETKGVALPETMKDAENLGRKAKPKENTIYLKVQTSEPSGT
Method: as §1, §2

[5] = read-out: Ki for inhibition of UGT1A9 activities, recombinant and human liver microsomal UGT1A9

Compound: O=C(O)c1cc(/N=N/c2ccc(S(=O)(=O)Nc3ccccn3)cc2)ccc1O [sulfasalazine]
- IC50 [1]: 390 nM

Compound: CNC(=O)c1cc(Oc2ccc(NC(=O)Nc3ccc(Cl)c(C(F)(F)F)c3)cc2)ccn1 [sorafenib]
- Ki [2, 5]: 700 nM

Compound: C[n+]1ccc(-c2ccccc2)cc1 [Methyl-4-phenylpyridinium]
- Fold Increase of transport rate ([3]; HEK293-OCT2 versus Mock): 25.5
- Transport Rate (pmol/min) (mean ± SD) ([3]; HEK293 Mock cells (comparison for OCT2)): 0.66 ± 0.11 pmol/min
- Transport Rate (pmol/min) (mean ± SD) ([3]; HEK293 cells overexpressing OCT2): 16.78 ± 0.43 pmol/min
- Fold Increase of transport rate ([4]; HEK293-OCT1 versus Mock): 17.1
- Transport Rate (pmol/min) (mean ± SD) ([4]; HEK293 Mock cells (comparison for OCT1)): 0.60 ± 0.09 pmol/min
- Transport Rate (pmol/min) (mean ± SD) ([4]; HEK293 cells overexpressing OCT1): 10.24 ± 0.98 pmol/min

Compound: Cc1ccc([C@@H]2O[C@H](CO)[C@@H](O)[C@H](O)[C@H]2O)cc1Cc1ccc(-c2ccc(F)cc2)s1 [canagliflozin]
- Ki [2, 5]: 1400 to 3000 nM

Compound: CNC(=O)c1cc(Oc2ccc(NC(=O)Nc3ccc(Cl)c(C(F)(F)F)c3)c(F)c2)ccn1 [regorafenib]
- Ki [2]: 700 nM

— article PMC6720883, “In Vitro Inhibitory Effects of APINACA on Human Major Cytochrome P450, UDP-Glucuronosyltransferase Enzymes, and Drug Transporters” (Molecules, 2019)
